Measured values as given in patent publication US20230329236A1, “HERBICIDAL PYRIMIDINE DERIVATIVES” (MoA Technology Limited, priority 2020, published 2023).

How the values were obtained:
[1] = system: Lolium multiflorum (LOLMU); test: Post-emergence glasshouse test, visual injury, LOLMU; type: in vivo; conditions: 336 h, 14±1 days post application
Outline: (§1)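 In this glasshouse test, sandy-loam-grown plants at BBCH 12-14 received a foliar spray of compound in 0.5% Tween 20 acetone/water (50:50) at rates expressed in g/ha. Injury was rated visually against untreated plots two weeks (14±1 d) later.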

[2] = system: Echinochloa crus-gaffi (ECHCG); test: Post-emergence glasshouse test, visual injury, ECHCG; type: in vivo, Echinochloa crus-galli; conditions: 336 h, 14±1 days post application
Outline: as §1

Veronica persica (VERPE) = test: Post-emergence glasshouse test, visual injury, VERPE; type: in vivo; conditions: 336 h, 14±1 days post application
Outline: as §1

[3] = system: Amaranthus retroflexus (AMARE); test: Post-emergence glasshouse test, visual injury, AMARE; type: in vivo; conditions: 336 h, 14±1 days post application
Outline: as §1

Glycine max (GLXMA) = test: Post-emergence glasshouse test, visual injury, GLXMA; type: in vivo; conditions: Table 4, post-emergence, 14±1 days post application
Experimental: (§2) Seeds of a variety of test species are grown in a sandy loam soil mixture, Lolium multiflorum (LOLMU), Amaranthus retroflexus (AMARE), Echinochloa crus-gaffi (ECHCG), Veronica persica (VERPE), Glycine max (GLXMA), Oryza sativa (ORYSA), Zea mays (ZEAMX), spring wheat (TRZAS), Ipomoea hederacea (IPOHE), Ipomoea purpurea (PHBPU), Stellaria media (STEME), Solanum nigrum (SOLNI), Digitaria sanguinalis (DIGSA), Setaria italica (SETIT), Alopecurus myosuroides (ALOMY) and Avena fatua (AVEFA).
(§3) After sowing, at growth stage BBCH 12-14 (post-emergence), the plants are sprayed with an aqueous spray solution derived from the formulation of the technical active ingredient in acetone/water (50:50) solution containing 0.5% Tween 20 (polyoxyethlyene sorbitan monolaureate, CAS RN 9005-64-5). The test compounds are applied at the required concentration of active ingredient in g/ha. The test plants are then grown in a glasshouse under controlled environmental conditions and watered regularly as required. After 14±1 days post application (for post-emergence test), the test is evaluated by assessing the percentage damage caused to the plants in comparison with the untreated plots. The biological activities for post-emergence testing are shown below (Table 3 and Table 4) as a % visual injury.

Oryza sativa (ORYSA) = test: Post-emergence glasshouse test, visual injury, ORYSA; type: in vivo; conditions: Table 4, post-emergence, 14±1 days post application
Experimental: as §2, §3

Zea mays (ZEAMX) = test: Post-emergence glasshouse test, visual injury, ZEAMX; type: in vivo; conditions: Table 4, post-emergence, 14±1 days post application
Experimental: as §2, §3

spring wheat (TRZAS) = test: Post-emergence glasshouse test, visual injury, TRZAS; type: in vivo; conditions: Table 4, post-emergence, 14±1 days post application
Experimental: as §2, §3

[4] = system: Ipomoea hederacea (IPOHE); test: Post-emergence glasshouse test, visual injury, IPOHE; type: in vivo; conditions: Table 4, post-emergence, 14±1 days post application
Experimental: as §2, §3

Ipomoea purpurea (PHBPU) = test: Post-emergence glasshouse test, visual injury, PHBPU; type: in vivo; conditions: Table 4, post-emergence, 14±1 days post application
Experimental: as §2, §3

Stellaria media (STEME) = test: Post-emergence glasshouse test, visual injury, STEME; type: in vivo; conditions: Table 4, post-emergence, 14±1 days post application
Experimental: as §2, §3

Solanum nigrum (SOLNI) = test: Post-emergence glasshouse test, visual injury, SOLNI; type: in vivo; conditions: Table 4, post-emergence, 14±1 days post application
Experimental: as §2, §3

[5] = system: Digitaria sanguinalis (DIGSA); test: Post-emergence glasshouse test, visual injury, DIGSA; type: in vivo; conditions: Table 4, post-emergence, 14±1 days post application
Experimental: as §2, §3

Setaria italica (SETIT) = test: Post-emergence glasshouse test, visual injury, SETIT; type: in vivo; conditions: Table 4, post-emergence, 14±1 days post application
Experimental: as §2, §3

[6] = system: Alopecurus myosuroides (ALOMY); test: Post-emergence glasshouse test, visual injury, ALOMY; type: in vivo; conditions: Table 4, post-emergence, 14±1 days post application
Experimental: as §2, §3

Avena fatua (AVEFA) = test: Post-emergence glasshouse test, visual injury, AVEFA; type: in vivo; conditions: Table 4, post-emergence, 14±1 days post application
Experimental: as §2, §3

[7] = Table 4, post-emergence, 125 g/ha
[8] = Table 4, post-emergence, 250 g/ha
[9] = Table 4, post-emergence, 1000 g/ha

## Cc1cc(-c2cnc(NCc3ccc(F)cc3)nc2C2CC2)on1 [Compound 16]
[1]; Table 3, post-emergence
  pest or weed control at 500 g/ha: 0%
[1]; [7]
  pest or weed control at 125 g/ha: 98%
[1]; [8]
  pest or weed control at 250 g/ha: 90%
[1]; Table 4, post-emergence
  pest or weed control at 500 g/ha: 100%
[1]; [9]
  pest or weed control at 1000 g/ha: 95%
[2]; Table 3, post-emergence
  pest or weed control at 500 g/ha: 40%
[2]; [7]
  pest or weed control at 125 g/ha: 80%
[2]; [8]
  pest or weed control at 250 g/ha: 70%
[2]; Table 4, post-emergence
  pest or weed control at 500 g/ha: 60%
[2]; [9]
  pest or weed control at 1000 g/ha: 90%
Veronica persica (VERPE); Table 3, post-emergence
  pest or weed control at 500 g/ha: 95%
Veronica persica (VERPE); [7]
  pest or weed control at 125 g/ha: 100%
Veronica persica (VERPE); [8]
  pest or weed control at 250 g/ha: 100%
Veronica persica (VERPE); Table 4, post-emergence
  pest or weed control at 500 g/ha: 100%
Veronica persica (VERPE); [9]
  pest or weed control at 1000 g/ha: 100%
[3]; Table 3, post-emergence
  pest or weed control at 500 g/ha: 95%
[3]; [7]
  pest or weed control at 125 g/ha: 100%
[3]; [8]
  pest or weed control at 250 g/ha: 100%
[3]; Table 4, post-emergence
  pest or weed control at 500 g/ha: 100%
[3]; [9]
  pest or weed control at 1000 g/ha: 100%
Glycine max (GLXMA); 125 g/ha
  GLXMA % visual injury: 50%
Glycine max (GLXMA); 250 g/ha
  GLXMA % visual injury: 40%
Glycine max (GLXMA); 500 g/ha
  GLXMA % visual injury: 70%
Glycine max (GLXMA); 1000 g/ha
  GLXMA % visual injury: 50%
Oryza sativa (ORYSA); 125 g/ha
  ORYSA % visual injury: 60%
Oryza sativa (ORYSA); 250 g/ha
  ORYSA % visual injury: 90%
Oryza sativa (ORYSA); 500 g/ha
  ORYSA % visual injury: 70%
Oryza sativa (ORYSA); 1000 g/ha
  ORYSA % visual injury: 60%
Zea mays (ZEAMX); 125 g/ha
  ZEAMX % visual injury: 60%
Zea mays (ZEAMX); 250 g/ha
  ZEAMX % visual injury: 60%
Zea mays (ZEAMX); 500 g/ha
  ZEAMX % visual injury: 50%
Zea mays (ZEAMX); 1000 g/ha
  ZEAMX % visual injury: 70%
Spring wheat (TRZAS); 125 g/ha
  TRZAS % visual injury: 30%
Spring wheat (TRZAS); 250 g/ha
  TRZAS % visual injury: 30%
Spring wheat (TRZAS); 500 g/ha
  TRZAS % visual injury: 50%
Spring wheat (TRZAS); 1000 g/ha
  TRZAS % visual injury: 50%
[4]; 125 g/ha
  IPOHE % visual injury: 40%
[4]; 250 g/ha
  IPOHE % visual injury: 80%
[4]; 500 g/ha
  IPOHE % visual injury: 100%
[4]; 1000 g/ha
  IPOHE % visual injury: 100%
Ipomoea purpurea (PHBPU); 125 g/ha
  PHBPU % visual injury: 80%
Ipomoea purpurea (PHBPU); 250 g/ha
  PHBPU % visual injury: 95%
Ipomoea purpurea (PHBPU); 500 g/ha
  PHBPU % visual injury: 90%
Ipomoea purpurea (PHBPU); 1000 g/ha
  PHBPU % visual injury: 90%
Stellaria media (STEME); 125 g/ha
  STEME % visual injury: 100%
Stellaria media (STEME); 250 g/ha
  STEME % visual injury: 100%
Stellaria media (STEME); 500 g/ha
  STEME % visual injury: 100%
Stellaria media (STEME); 1000 g/ha
  STEME % visual injury: 100%
Solanum nigrum (SOLNI); 125 g/ha
  SOLNI % visual injury: 98%
Solanum nigrum (SOLNI); 250 g/ha
  SOLNI % visual injury: 99%
Solanum nigrum (SOLNI); 500 g/ha
  SOLNI % visual injury: 100%
Solanum nigrum (SOLNI); 1000 g/ha
  SOLNI % visual injury: 100%
[5]; 125 g/ha
  DIGSA % visual injury: 90%
[5]; 250 g/ha
  DIGSA % visual injury: 80%
[5]; 500 g/ha
  DIGSA % visual injury: 90%
[5]; 1000 g/ha
  DIGSA % visual injury: 90%
Setaria italica (SETIT); 125 g/ha
  SETIT % visual injury: 0%
Setaria italica (SETIT); 250 g/ha
  SETIT % visual injury: 30%
Setaria italica (SETIT); 500 g/ha
  SETIT % visual injury: 30%
Setaria italica (SETIT); 1000 g/ha
  SETIT % visual injury: 60%
[6]; 125 g/ha
  ALOMY % visual injury: 70%
[6]; 250 g/ha
  ALOMY % visual injury: 80%
[6]; 500 g/ha
  ALOMY % visual injury: 80%
[6]; 1000 g/ha
  ALOMY % visual injury: 80%
Avena fatua (AVEFA); 125 g/ha
  AVEFA % visual injury: 50%
Avena fatua (AVEFA); 250 g/ha
  AVEFA % visual injury: 60%
Avena fatua (AVEFA); 500 g/ha
  AVEFA % visual injury: 60%
Avena fatua (AVEFA); 1000 g/ha
  AVEFA % visual injury: 60%
